Experimental data reported in patent US7524871B2, “Thrombin inhibitors” (University of Ljubljana, Faculty of Pharmacy, priority 2001, dated 2009).
Read-outs that look alike come from different tables or passages of the source.

Tests used:
human thrombin = target: T1, human thrombin (Homo sapiens, UniProt P00734); assay: Enzyme assay for determination of the activity of thrombin inhibitors (chromogenic substrate S-2238); assay type: biochemical
T1 construct: Thrombin (human thrombin, 308 NIH units, Sigma); purchased Sigma
Method: I. Enzyme Assay for Determination of the Activity of Thrombin Inhibitors
Thrombin cleaves amide bonds in a synthetic chromogenic substrate whereby […] coloured p-nitroaniline (p-NA) is released. The amount of p-NA produced is directly proportionate to the absorbance measured at a wavelength of 405 nm using a spectrophotometer. When thrombin inhibitor is added, the amidolytic activity of the enzyme decreases. The potency of the inhibitor is expressed by the inhibition constant (Ki).
The stock solution is pipetted into 0.5 mL aliquots and stored at −70° C. Immediately before use a working solution of thrombin of […] is prepared with HBSA buffer. The final concentration of thrombin in a microtiter plate is 0.5 NIH units/mL.
1 mM substrate solution is prepared, pipetted into 0.5 mL aliquots and stored at −20° C. Before use, 160 and 80 μM substrate solutions of the substrate are prepared with distilled water.
(§1) HBSA buffer, pH 7.5: 10 mM Hepes buffer (HEPES, Sigma), 150 mM NaCl and 0.1% (w/v) bovine serum albumin (98% bovine serum albumin, Sigma) are dissolved in bidistilled water. The pH is adjusted with 0.1 M NaOH solution.
Working solutions (final concentrations within the range 10 to 100 μM) are prepared with distilled water.
Measurements are carried out in the microtiter plate. 50 μL HBSA buffer, 50 μL inhibitor solution of different concentrations (for control 50 μL HBSA buffer) and 50 μL of thrombin solution are pipetted into the wells of a microtiter plate. The plate is incubated at a temperature of 25° C. for 15 minutes. After incubation 50 μL of the chromogenic substrate is added and the microtiter plate is placed in the spectrophotometer (Tecan, Sunrise).
(§2) Each measurement is carried out in triplicate and the result is the averaged value of three measurements.
(§3) 4. Determination of the Inhibition Constant (Ki)
Initial velocities of the reaction in the presence and absence of the inhibitor are measured. The change in the absorbance in the time unit (v) is calculated from the initial, linear part of the reaction. For competitive inhibitors it holds that
[formula] and it follows that
[formula] I=inhibitor concentration, S=substrate concentration, Km=Michaelis constant, vo=initial velocity of the reaction in the absence of inhibitor, vi=initial velocity of the reaction in the presence of inhibitor.
Measurements are carried out with two concentrations of the inhibitor and two concentrations of the substrate.

Trypsin (bovine) = target: T2, Trypsin (bovine) (Bos taurus, UniProt P00760); assay: Determination of selectivity of the inhibitor activity against thrombin with respect to trypsin inhibition (chromogenic substrate S-2222); assay type: biochemical; settings: for Ki: bovine trypsin 1 mU/mL, S-2222 100 and 50 μM, HBSA buffer pH 7.5; for Ki trypsin/ Ki thrombin: selectivity, ratio of Ki for trypsin to Ki for thrombin
T2 construct: purchased Sigma
T2 sequence (P00760 24-246): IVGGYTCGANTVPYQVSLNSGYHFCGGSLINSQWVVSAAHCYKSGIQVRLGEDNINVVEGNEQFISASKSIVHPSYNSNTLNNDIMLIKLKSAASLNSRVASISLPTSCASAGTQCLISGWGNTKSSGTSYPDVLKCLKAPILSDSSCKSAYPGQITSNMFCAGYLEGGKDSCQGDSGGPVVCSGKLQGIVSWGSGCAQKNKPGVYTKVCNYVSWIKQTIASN
Method: II. Determination of Selectivity of the Inhibitor Activity Against Thrombin with Respect to Trypsin Inhibition
The inhibitory activity against thrombin is determined as described above. Trypsin inhibition is measured in the same manner as in determination of inhibitory activity for thrombin except that a different chromogenic substrate is used. For both enzymes Ki is calculated. Selectivity of the inhibitor is expressed as a ratio of Ki for trypsin to Ki for thrombin.
Trypsin (bovine, 6000 BAEE Units/mg protein, Sigma): A stock solution of trypsin with the activity of 300 U/mL is prepared, pipetted into 0.2 mL aliquots and stored at −70° C. Immediately before use, the stock solution is thawed and a working solution of 4 mU/mL is prepared with HBSA buffer. The final trypsin activity in a microtiter plate is 1 mU/mL.
Before use the stock solution is thawed and 400 and 200 μM substrate solutions are prepared The final concentrations of the substrate in the reaction mixture are 100 and 50 μM.
as §1
Working solutions (final concentrations in the range from 10 to 600 μM) are prepared with distilled water.
as §2
The procedure is the same as the procedure described for determination of the inhibitory activity against thrombin. The concentrations of the reagents described for determination of the inhibitory activity with respect to trypsin are used.
as §3
It is determined in the same manner as determination of Ki for thrombin.
5. Determination of the Selectivity
Ki for thrombin and Ki for trypsin are determined. The selectivity is defined as the ratio: […]

[1] = human thrombin 0.5 NIH units/mL, S-2238 40 and 20 μM, HBSA buffer pH 7.5, 25° C., read-out: Ki thrombin

Ki (human thrombin; [1]) | Ki (Trypsin (bovine)) | Ki trypsin/ Ki thrombin (Trypsin (bovine)) | SMILES | Ki (human thrombin)
160 nM | 260 µM | 1625 | Cc1ccc(NS(=O)(=O)Cc2ccccc2)c(=O)n1CC(=O)NC1CCc2nc(N)sc2C1 (stereo not drawn) | –
210 nM | 376 µM | 1790 | Cc1ccc(NS(=O)(=O)Cc2ccccc2)c(=O)n1CC(=O)NCC1CCc2n[nH]cc2C1 (stereo not drawn) | –
690 nM | 147 µM | 213 | Cc1ccc(NCCc2ccccc2)c(=O)n1CC(=O)NC1CCc2nc(N)sc2C1 (stereo not drawn) | –
4700 nM | 438 µM | 93 | Cc1ccc(NS(=O)(=O)Cc2ccccc2)c(=O)n1CC(=O)NC1CCc2n[nH]cc2C1 (stereo not drawn) | –
820 nM | 421 µM | 526 | Cc1ccc(NCCc2ccccc2)c(=O)n1CC(=O)NCC1CCc2n[nH]cc2C1 (stereo not drawn) | –

SMILES | Ki (human thrombin; [1]) | Ki (Trypsin (bovine)) | Ki trypsin/ Ki thrombin (Trypsin (bovine)) | Ki (human thrombin)
Cc1ccc(NS(=O)(=O)Cc2cccc(C(F)(F)F)c2)c(=O)n1CC(=O)NC1CCc2nc(N)sc2C1 (stereo not drawn) | 650 nM | > 200 µM | >300 | –
CCCCS(=O)(=O)Nc1ccc(C)n(CC(=O)NC2CCc3nc(N)sc3C2)c1=O (stereo not drawn) | 1300 nM | 50 µM | 37 | –
Cc1ccc(NS(=O)(=O)Cc2ccc(F)cc2Cl)c(=O)n1CC(=O)NCC1CCc2n[nH]cc2C1 (stereo not drawn) | 160 nM | > 300 µM | >1875 | –
Cc1ccc(NS(=O)(=O)Cc2ccc(F)cc2Cl)c(=O)n1CC(=O)NC1CCc2nc(N)sc2C1 (stereo not drawn) | – | 193 µM | 1097 | 160 nM
